# Measured values reported in patent US8603483B2, “Anti-integrin immunoconjugates, methods and uses” (Janssen Biotech, Inc., priority 2004, dated 2013).
# Tests used:
# [1] = system: A375.S2 human melanoma xenografts; test: Advanced s.c. A375.S2 melanoma xenograft in athymic rats, second experiment (FIG. 7); type: in vivo, rat; details: i.v., days 14, 16, 18, 23, 31
# Experimental: FIG. 7 is a graph showing the growth of human A375.S2 melanoma cells in athymic nude rats. On day 14, when the average tumor volumes reached 250 mm^3, the animals were randomly grouped and the first dose was administered. All animals were sacrificed on day 35. Tumor volumes were expressed as mean+/−SEM (n=9 or 10). The arrows indicate the days of intravenous drug administration.
# (§1) The efficacy of CNTO 364 compared to CNTO95 against advanced s.c. A375.S2 human melanoma cells was investigated. CNTO 95-DM1 was prepared by ImmunoGen, Inc. Lot #1716-74B, stock concentration: 2.59 mg/ml. 5 mg/kg of CNTO 95-DM1 is equivalent to 74 μg/kg of DM1. CNTO 95 was from Centocor, Lot #5380-027, stock concentration=20 mg/ml. Human IgG-DM1: ChromPure human IgG was from Jackson ImmunoResearch Laboratories. Human IgG-DM1 was prepared by ImmunoGen, Lot #1762-50, stock concentration 2.8 mg/ml. 5 mg/kg of this conjugate is equivalent to 76 μg/kg of DM1. Maytansine: ImmunoGen, Lot #1710-121, stock concentration=16.38 μg/ml in PBS, pH 6.5. The stock solution of Maytansine was diluted with PBS to 15 and 7.5 μg/ml. PBS: ImmunoGen, pH 6.5. A375.S2 human melanoma cells were purchased from ATCC and subpassaged and stored in frozen aliquots at Centocor Cell Biology Services.
# In a second experiment in rats, the average tumor volumes reached to 250 mm^3 on day 14. […]
# [2] = system: HT29 human colon carcinoma cells; test: ATPLite cytotoxicity, HT29 cells, 96 hrs; type: cell-based; details: HT29, 96 hrs
# Experimental: (§2) Human HT29 human colon carcinoma and human non-small cell lung carcinoma cells A549 (ATCC) were cultured in αMEM supplemented with 10% FBS at 37° C. in the presence of 5% CO2. Cells were seeded into white 96-well tissue culture plates (5000 cells/well) in culture medium and incubated for 16 hrs. Serial dilutions of immunoconjugates were added to each appropraite wells (0-20 μg/ml). Tissue culture plates were incubated at 37° C. for 96 hrs. ATPLIte assay was performed acording manufacturer's instruction. Data was analyzed with GraphPad Prism software using non-liner regression (Table 8) to determine the concentration at half maximal cell number as measured by luminosity.
# HT29 human colon tumor = test: HT29 colon carcinoma xenograft in athymic rats, comparison of conjugate linkages; type: in vivo, rat
# Experimental: An advanced tumor model using subcutaneously implanted HT29 human colon tumor-derived cells in immunocompromised rats was chosen to examine tolerability and potency of various linkages used to prepare immunoconjugates of CNTO 95.
# CNTO 95-SPP-DM1 (CNTO 364), CNTO 95-SSNPB-DM4 (CNTO 365), CNTO 95-SSNPP-DM4 (CNTO 366), and the Mab F105 equivalents of these were prepared by ImmunoGen (Cambridge, Mass.). One hundred female athymic rats (4-6 weeks of age) were obtained from Harlan Laboratories.
# Human HT29 (ATCC) were cultured in αMEM supplemented with 10% FBS at 37° C. in the presence of 5% CO2. Cells were prepared at a concentration of twenty-five million cells per ml in serum free αMEM for inoculation. Female athymic rats were inoculated with 5×10^6 HT29 cells subcutaneously (0.2 ml of 25×10^6 cells/ml) on the rear flank area (dorsal side, approximately 0.5 inches caudal to the last rib and 0.5 inches from the backbone). All rats were monitored twice per week for the appearance of tumor. The animals were stratified into 13 groups, 6 animals per group based on a mean tumor volume for each group of approximately 250 mm^3. Doses of immunoconjugates were calculated based on the contents of DM1 or DM4 in each conjugate. The L and H represent 175 and 350 μg/kg of DM1 or DM4, respectively. […] All measurements are expressed as the group mean+/−SEM (n=6).
# [3] = system: A549 human non-small cell lung carcinoma cells; test: ATPLite cytotoxicity, A549 cells, 96 hrs; type: cell-based; details: A549, 96 hrs
# Experimental: as §2
# αvβ5 = αvβ5 (Homo sapiens, UniProt P06756, V783I); test: 125-I saturation binding on αvβ5 coated plates
# Experimental: The binding affinity values for purified integrins were compared to binding to receptors expressed on various cell lines using 125-I CNTO 95. A375S2 and M21 cells express both αvβ3 and αvβ5, HT-29 cells express αvβ5. For comparison, other Mabs capable of binding integrins were used. The Kd was calculated from a saturation binding curve in each case using multiple replicates of multiple lots of antibody.
# [4] = system: A375.S2 human melanoma tumor; test: A375.S2 human melanoma xenograft in nude mice, CNTO 95 from day 3; type: in vivo, mouse; details: 10 mg/kg i.p. three times per week
# Experimental: FIG. 4 is a graph showing the change volume over time of a human melanoma tumor in nude mice and the effect of administering CNTO 95. Mice were inoculated subcutaneously with A375.S2 cells (3×10^6), and dosing with CNTO 95 or control was initiated three days later. Mice were treated with CNTO 95 or vehicle three times per week at a dose of 10 mg/kg i.p. Each data point is the mean tumor volume from 10 tumor-bearing animals (±SEM).
# At day 26, CNTO 95 inhibited tumor growth by approximately 80% compared to tumors from control-treated animals.
# angiogenesis [5] = test: Primate angiogenesis model; type: in vivo, cynomulgus monkeys; details: stimulated by bFGF
# angiogenesis [6] = test: Rat Matrigel angiogenesis model; type: in vivo; details: stimulated by bFGF and M21 melanoma cells
# [7] = system: tumor and endothelial cells; test: In vitro functional assays on tumor and endothelial cells (summary); type: cell-based
# Description: In addition, CNTO 95 inhibited angiogenesis and tumor growth in vivo.
# [8] = system: A375.S2 human melanoma tumor; test: A375.S2 human melanoma xenograft in nude rats, weekly CNTO 95; type: in vivo, rat; details: 10 mg/kg i.v. weekly, day 46, p=0.0007
# Experimental: FIG. 5 is a graph showing the change volume over time of a human melanoma tumor in nude rats and the effect of administering CNTO 95. Rats were inoculated subcutaneously with A375.S2 cells (3×106), and therapy with CNTO 95 or control was initiated three days later. Rats were treated with CNTO 95 or vehicle once per week at a dose of 10 mg/kg i.v. Each data point is the mean tumor volume from 9 tumor-bearing animals (±SEM).
# For rat studies, female nude rats, aged 6-7 weeks, were purchased from Harlan. Twenty rats were inoculated s.c. with A375.S2 cells (3×10^6) in the flank region (day 1). On day 4, rats were randomly assigned to 2 groups. One group was injected i.v. with CNTO 95 (10 mg/kg in PBS), while the other group received an isotype-matched control IgG (10 mg/kg). Dosing was continued weekly thereafter until day 46 (total of 6 doses). Tumors were measured by calipers twice a week and tumor volumes calculated by the formula (length×width2)/2. Body weights were also recorded weekly.
# In the rat, CNTO 95 is capable of blocking both rat angiogenic integrins and human tumor cell-expressed integrins. Weekly treatment of tumor-bearing nude rats with CNTO 95 at 10 mg/kg reduced tumor growth compared to the isotype-matched human IgG control MAb (FIG. 5).
# [9] = system: A375.S2 human melanoma cells; test: Advanced s.c. A375.S2 melanoma xenograft, first experiment (FIG. 6); type: in vivo, athymic nude rats; details: 10 mg/kg i.v., tumors 250-300 mm^3 at start
# Experimental: as §1
# Nine-week-old athymic nude rats were subcutaneously inoculated with A375.S2 human melanoma cells. On day 14, when average tumor volumes reached to 250-300 mm^3, animals were randomized to groups of 9/10 and treatment initiated. […] The arrows indicate intravenous drug administration.
# alphaVbeta3 = alphaVbeta3 (Homo sapiens, UniProt P05106+P06756, V783I); test: ELISA binding of purified hybridoma antibodies to alphaVbeta3; details: ELISA on alphaVbeta3
# Description: Human placenta (disrupted using a meat grinder) or M21 human melanoma cells expressing the αVβ3 integrin were extracted with OTG (Octylthioglucoside Pierce) in buffered saline as described (WO0212501). These preparations were emulsified with an equal volume of complete Freund's adjuvant and used to immunize 15 to 17 week old surgically castrated male mouse (GenPharm, Foster City, Calif.) on days 0 and 14 and in incomplete Freunds on days 28, 48, and 56. Three days later splenocytes were harvested from a mouse showing a titer of 1:1280 against alphaVbeta3 using a solid phase EIA format. Fusion was carried out at a 1:1 ratio of murine myeloma cells (SP2/0) to viable spleen cells. Hybridoma supernatants were screened using the EIA microplate assay or EIA capture assay and selected antibody producing lines expanded and retested for the desired properties.
# ELISA analysis confirmed that purified antibody from two hybridomas, C371A (also called Mab CNTO 95) and C372A, bind alphaVbeta3 in a concentration-dependent manner. Fifty percent binding is achieved at 0.07 and 0.7 μg/mL for C372A and CNTO 95 respectively.
# αvβ5, sequence (P06756 31-889 V783I limits assumed): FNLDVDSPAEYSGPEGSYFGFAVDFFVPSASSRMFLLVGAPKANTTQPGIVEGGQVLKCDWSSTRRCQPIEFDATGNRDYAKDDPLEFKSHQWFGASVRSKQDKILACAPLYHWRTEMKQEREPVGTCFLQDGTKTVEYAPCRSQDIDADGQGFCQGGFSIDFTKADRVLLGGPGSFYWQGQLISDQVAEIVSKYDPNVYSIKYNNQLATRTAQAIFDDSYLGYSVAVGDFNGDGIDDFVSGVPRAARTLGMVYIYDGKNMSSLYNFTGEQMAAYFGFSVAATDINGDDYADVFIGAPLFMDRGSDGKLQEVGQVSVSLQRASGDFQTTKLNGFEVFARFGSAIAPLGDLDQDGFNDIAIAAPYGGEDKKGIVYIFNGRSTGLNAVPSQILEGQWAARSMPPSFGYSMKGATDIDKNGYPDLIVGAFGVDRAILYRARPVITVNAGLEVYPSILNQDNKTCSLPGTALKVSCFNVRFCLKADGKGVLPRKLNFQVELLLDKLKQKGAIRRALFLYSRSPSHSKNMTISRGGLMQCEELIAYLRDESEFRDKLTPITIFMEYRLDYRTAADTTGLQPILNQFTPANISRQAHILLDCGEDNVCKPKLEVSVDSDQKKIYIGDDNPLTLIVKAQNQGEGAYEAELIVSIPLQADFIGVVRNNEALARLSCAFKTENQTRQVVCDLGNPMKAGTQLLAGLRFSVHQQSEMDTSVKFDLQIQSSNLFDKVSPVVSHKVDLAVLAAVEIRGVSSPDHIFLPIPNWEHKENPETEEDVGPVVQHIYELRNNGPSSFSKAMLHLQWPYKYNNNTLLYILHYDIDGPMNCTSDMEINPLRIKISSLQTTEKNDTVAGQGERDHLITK
# αvβ5, sequence (P06756 891-1048 limits assumed): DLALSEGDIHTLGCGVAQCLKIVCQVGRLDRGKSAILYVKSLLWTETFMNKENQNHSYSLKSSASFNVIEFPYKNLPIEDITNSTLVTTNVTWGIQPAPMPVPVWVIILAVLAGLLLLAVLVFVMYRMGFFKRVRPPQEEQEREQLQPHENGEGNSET
# αvβ5, sequence (P18084 24-799 partner): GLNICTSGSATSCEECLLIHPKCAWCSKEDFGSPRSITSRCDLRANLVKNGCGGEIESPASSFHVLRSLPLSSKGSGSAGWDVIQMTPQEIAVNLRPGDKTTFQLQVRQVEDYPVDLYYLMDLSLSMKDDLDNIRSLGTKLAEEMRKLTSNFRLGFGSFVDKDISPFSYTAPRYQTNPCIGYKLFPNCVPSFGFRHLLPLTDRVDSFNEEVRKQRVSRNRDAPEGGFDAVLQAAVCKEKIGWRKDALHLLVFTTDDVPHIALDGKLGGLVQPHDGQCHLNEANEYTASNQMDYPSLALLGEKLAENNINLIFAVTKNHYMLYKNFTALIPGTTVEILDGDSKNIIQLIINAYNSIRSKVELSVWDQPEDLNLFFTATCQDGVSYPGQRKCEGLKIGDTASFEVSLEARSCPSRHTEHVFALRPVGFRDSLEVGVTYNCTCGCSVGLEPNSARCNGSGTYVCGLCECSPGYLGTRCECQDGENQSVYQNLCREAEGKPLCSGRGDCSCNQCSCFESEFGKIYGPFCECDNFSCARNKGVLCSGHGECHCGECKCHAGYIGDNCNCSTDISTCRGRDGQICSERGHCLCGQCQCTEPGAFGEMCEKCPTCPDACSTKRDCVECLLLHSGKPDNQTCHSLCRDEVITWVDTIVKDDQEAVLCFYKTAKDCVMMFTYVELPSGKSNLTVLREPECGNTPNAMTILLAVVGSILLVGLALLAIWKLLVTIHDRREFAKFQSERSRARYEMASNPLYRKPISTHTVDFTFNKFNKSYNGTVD
# alphaVbeta3, sequence (P06756 31-889 V783I limits assumed): as the sequence (P06756 31-889 V783I limits assumed) above
# alphaVbeta3, sequence (P06756 891-1048 limits assumed): as the sequence (P06756 891-1048 limits assumed) above
# alphaVbeta3, sequence (P05106 27-788): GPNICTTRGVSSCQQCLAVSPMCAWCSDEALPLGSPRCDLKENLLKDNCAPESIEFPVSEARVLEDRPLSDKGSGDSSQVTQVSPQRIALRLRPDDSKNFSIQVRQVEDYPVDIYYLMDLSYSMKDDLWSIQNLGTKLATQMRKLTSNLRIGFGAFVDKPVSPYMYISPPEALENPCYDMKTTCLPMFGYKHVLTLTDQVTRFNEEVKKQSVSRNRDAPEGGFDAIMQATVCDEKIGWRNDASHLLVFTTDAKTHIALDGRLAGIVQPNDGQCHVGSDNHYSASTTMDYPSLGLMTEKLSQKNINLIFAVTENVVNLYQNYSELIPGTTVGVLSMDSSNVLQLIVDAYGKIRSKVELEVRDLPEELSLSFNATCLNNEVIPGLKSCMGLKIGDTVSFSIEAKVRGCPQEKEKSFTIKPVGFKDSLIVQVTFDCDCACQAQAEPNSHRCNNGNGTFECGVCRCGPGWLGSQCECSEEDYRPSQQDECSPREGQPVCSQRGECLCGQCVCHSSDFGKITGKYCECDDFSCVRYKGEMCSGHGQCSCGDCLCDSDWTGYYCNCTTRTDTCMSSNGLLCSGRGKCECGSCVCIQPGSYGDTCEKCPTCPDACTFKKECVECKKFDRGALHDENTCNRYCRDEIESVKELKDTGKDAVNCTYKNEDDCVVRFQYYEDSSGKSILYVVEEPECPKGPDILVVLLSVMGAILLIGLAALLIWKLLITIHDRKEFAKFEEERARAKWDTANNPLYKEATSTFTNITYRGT
compound,measurement,setting,value
"COc1cc2cc(c1Cl)N(C)C(=O)C[C@H](OC(=O)[C@H](C)N(C)C(C)=O)[C@]1(C)O[C@H]1[C@H](C)[C@@H]1C[C@@](O)(NC(=O)O1)[C@H](OC)/C=C/C=C(\C)C2 [Maytansine, reference compound]",effect on xenograft tumors (control compounds),[1],did not show any significant effects
CNTO 365: CNTO 95 conjugated to maytansinoid DM4 with SSNPB or SPDB linker; methyl groups 0:2,"EC50, concentration at half maximal cell number",[2],0.24 µg/mL
same,"complete regression, animals out of 6","HT29 human colon tumor; high dose (350 microgm/kg of DM4), single injection",4
same,"regressed preformed colon tumors, animals out of 6","HT29 human colon tumor; low dose (175 microgm/kg of DM4), Day 7 and Day 21",2
same,"EC50, concentration at half maximal cell number",[3],0.3 µg/mL
"abciximab: other Mab capable of binding integrins, used for comparison",binding on αvβ5 coated plates,αvβ5,no binding and no dose-response
"CNTO 95: fully human anti-alphaV integrin monoclonal antibody, human variable and IgG1 kappa constant regions",inhibition of tumor growth compared to control-treated animals,[4]; day 26,approximately 80%
same,tumor growth vs control,"[4]; day 26, P=0.0005",significantly inhibited growth of tumors
same,effect on angiogenesis,angiogenesis [5],blocked angiogenesis
same,effect on angiogenesis,angiogenesis [6],blocked angiogenesis
same,"effect on adhesion, migration, proliferation and invasion",[7],"inhibited adhesion, migration, proliferation and invasion"
same,final tumor size vs isotype-matched control IgG,[8],significant reduction in final tumor size
same,effect on xenograft tumors (control compounds),[1],did not show any significant effects
same,effect on tumor growth / average tumor volume,[9],had no effect
c7E3 IgG: anti-alphaIIbeta3 antibody,Fifty percent (maximal) binding concentration,alphaVbeta3,0.07 µg/mL
